In patent US20260193173A1, “AMINO ACID-BENZOIC ACID OLIGOMERS AND METHODS OF USE THEREOF FOR TREATING CANCER” (Board of Regents, The University of Texas System, priority 2022, published 2026):

Experiments:
Bcl-2 = Bcl-2 (Homo sapiens, UniProt P10415); assay: Bcl-2 protein binding, fluorescence polarization assay
Description: IC50 values were in the submicromolar range as determined by fluorescence polarization assay.

[1] = system: DU145 prostate cancer cells; assay: MTT assay, growth inhibition of prostate cancer cell line DU145; assay type: cell-based; details: Homo sapiens, DU-145, incubated with DU145 cells for 72 hours
Method: FIGS. 3A-3C show % inhibition (determined by MTT assay) of disclosed compounds on prostate cancer cell line DU145. Compounds were incubated with DU145 cells for 72 hours, showing strong cell growth inhibition with IC50 of 0.15-0.7 μM.

Bcl-2, sequence (P10415 whole entry): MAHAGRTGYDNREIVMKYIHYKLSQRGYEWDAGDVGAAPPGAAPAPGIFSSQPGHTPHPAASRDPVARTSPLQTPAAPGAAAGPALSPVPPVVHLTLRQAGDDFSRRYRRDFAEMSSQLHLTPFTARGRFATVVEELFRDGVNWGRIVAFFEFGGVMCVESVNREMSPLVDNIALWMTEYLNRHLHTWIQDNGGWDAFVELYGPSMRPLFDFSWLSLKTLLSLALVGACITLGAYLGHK

Structure (SMILES) | IC50 (Bcl-2) [nM] | IC50 [1] [nM]
CCC(C)C(NC(=O)c1ccc(NC(=O)C(NC(=O)c2ccc(N)c(OC)c2)C(C)CC)c(OCC(C)C)c1)C(=O)Nc1ccc(C(N)=O)cc1OCc1ccccc1 (centres unmarked) [Compound B9] | 1540 | 300
CCC(C)C(NC(=O)c1ccc(N)c(OC)c1)C(=O)Nc1ccc(C(=O)NC(CCSC)C(=O)Nc2ccc(C(N)=O)cc2OCC(C)C)cc1OCC(C)C (centres unmarked) [Compound B10] | 1960 | 779
CC(C)COc1cc(C(=O)NC(CS)C(=O)Nc2ccc(C(=O)NC(Cc3ccccc3)C(=O)Nc3ccc(C(N)=O)cc3OCC(C)C)cc2OCC(C)C)ccc1N (centres unmarked) [Compound B11] | 1080 | 120
COc1cc(C(=O)NC(Cc2ccc(O)cc2)C(=O)Nc2ccc(C(=O)NC(CCSC)C(=O)Nc3ccc(C(N)=O)cc3OCc3ccccc3)cc2OCC(C)C)ccc1N (centres unmarked) [Compound B12] | 599 | 702
